Values after ≈ are worked out from the molar mass of the structure shown.
Legend:
in vitro = conditions: human
Poliovirus 3 = assay: microbe, parasite or virus in culture; assay type: cell-based; conditions: Enterovirus C, read-out: Poliovirus3 EC50

SMILES	CC50 (in vitro) [µg/mL]	CC50 (in vitro; Picorana CC50) [µg/mL]	EC50 (Poliovirus 3) [µg/mL]	CC50 (in vitro; Rhino CC50) [µg/mL]
CC(C)c1ccc2c(c1)OC1(O)c3cccc(N)c3C(=O)C21NC(=O)c1ccccc1 (stereo not drawn) [Example 153, N-(1-Amino-4b-hydroxy-7-isopropyl-10-oxo-9b,10-dihydro-4bH-indeno[1,2-b]benzofuran-9b-yl)benzamide]	16 (≈ 38.7 µM)	9.02 (≈ 21.8 µM)	< 0.01	–
COc1cccc(C(=O)NC23C(=O)c4c(N)cccc4C2(O)Oc2cc(C(C)C)ccc23)c1 (stereo not drawn) [Example 154, N-(1-Amino-4b-hydroxy-7-isopropyl-10-oxo-9b,10-dihydro-4bH-indeno[1,2-b]benzofuran-9b-yl)-3-methoxybenzamide]	22.7 (≈ 51.1 µM)	46.2 (≈ 104 µM)	< 0.01	–
CC(C)c1ccc2c(c1)OC1(O)c3cccc(N)c3C(=O)C21NC(=O)c1ccc(Cl)cc1 (stereo not drawn) [Example 155, N-(1-Amino-4b-hydroxy-7-isopropyl-10-oxo-9b,10-dihydro-4bH-indeno[1,2-b]benzofuran-9b-yl)-4-chlorobenzamide]	7.81 (≈ 17.4 µM)	9.02 (≈ 20.1 µM)	< 0.01	–
CC(C)c1ccc2c(c1)OC1(O)c3cccc(N)c3C(=O)C21NC(=O)C1CC1 (stereo not drawn) [Example 158, N-(1-Amino-4b-hydroxy-7-isopropyl-10-oxo-9b,10-dihydro-4bH-indeno[1,2-b]benzofuran-9b-yl)cyclopropanecarboxamide]	39.4 (≈ 104 µM)	44.7 (≈ 118 µM)	< 0.01	–
CC(C)c1ccc2c(c1)OC1(O)c3ccccc3C(=O)C21NC(=O)c1cccs1 (stereo not drawn) [Example 161, N-(4b-Hydroxy-7-isopropyl-10-oxo-9b,10-dihydro-4bH-indeno[1,2-b]benzofuran-9b-yl)thiophene-2-carboxamide]	17.9 (≈ 44.1 µM)	40.7 (≈ 100 µM)	< 0.01	–
CC(C)c1ccc2c(c1)OC1(O)c3cccc(N)c3C(=O)C21NC=O (stereo not drawn) [Example 166, N-(1-Amino-4b-hydroxy-7-isopropyl-10-oxo-9b,10-dihydro-4bH-indeno[1,2-b]benzofuran-9b-yl)formamide]	> 10	–	< 0.01	–
CC(C)c1ccc2c(c1)OC1(O)c3cccc(N)c3C(=O)C21NC(=O)c1ccc(C#N)cc1 (stereo not drawn) [Example 170, N-(1-Amino-4b-hydroxy-7-isopropyl-10-oxo-9b,10-dihydro-4bH-indeno[1,2-b]benzofuran-9b-yl)-4-cyanobenzamide]	> 10	–	< 0.01	–
CC(C)c1ccc2c(c1)OC1(O)c3cccc(N)c3C(=O)C21NC(=O)c1ccc2ccccc2c1 (stereo not drawn) [Example 171, N-(1-Amino-4b-hydroxy-7-isopropyl-10-oxo-9b,10-dihydro-4bH-indeno[1,2-b]benzofuran-9b-yl)-2-naphthamide]	> 10	–	0.03 (≈ 0.0646 µM)	–
CC(C)c1ccc2c(c1)OC1(O)c3cccc(N)c3C(=O)C21NC(=O)C1CCCO1 (stereo not drawn) [Example 174, N-(1-Amino-4b-hydroxy-7-isopropyl-10-oxo-9b,10-dihydro-4bH-benzo[d]indeno[1,2-b]furan-9b-yl)tetrahydrofurane-2-carboxamide]	> 10	–	0.019 (≈ 0.0465 µM)	–
CC(C)c1ccc2c(c1)OC1(O)c3cccc(N)c3C(=O)C21NC(=O)C(F)(F)F (stereo not drawn) [Example 175, N-(1-Amino-4b-hydroxy-7-isopropyl-10-oxo-9b,10-dihydro-4bH-indeno[1,2-b]benzofuran-9b-yl)-2,2,2-trifluoroacetamide]	> 10	> 11	< 0.01	–
CC(C)c1ccc2c(c1)OC1(O)c3cccc(N)c3C(=O)C21NC(=O)Cc1ccccc1 (stereo not drawn) [Example 179, N-(1-Amino-4b-hydroxy-7-isopropyl-10-oxo-9b,10-dihydro-4bH-indeno[1,2-b]benzofuran-9b-yl)-2-phenylacetamide]	> 10	–	< 0.01	–
CC(C)c1ccc2c(c1)OC1(O)c3cccc(N)c3C(=O)C21NC(=O)/C=C/c1ccc(Cl)c(Cl)c1 (stereo not drawn) [Example 180]	> 10	4.32 (≈ 8.48 µM)	0.033 (≈ 0.0648 µM)	–
CC(C)c1ccc2c(c1)OC1(O)c3cccc(N)c3C(=O)C21NC(=O)c1ccc(OCc2ccccc2)cc1 (stereo not drawn) [Example 181, N-(1-Amino-4b-hydroxy-7-isopropyl-10-oxo-9b,10-dihydro-4bH-indeno[1,2-b]benzofuran-9b-yl)-4-(benzyloxy)benzamide]	> 10	–	0.036 (≈ 0.0692 µM)	–
COc1ccccc1C(=O)NC12C(=O)c3c(N)cccc3C1(O)Oc1cc(C(C)C)ccc12 (stereo not drawn) [Example 183, N-(1-Amino-4b-hydroxy-7-isopropyl-10-oxo-9b,10-dihydro-4bH-indeno[1,2-b]benzofuran-9b-yl)-2-methoxybenzamide]	> 10	8.54 (≈ 19.2 µM)	0.014 (≈ 0.0315 µM)	–
Cc1ccccc1C(=O)NC12C(=O)c3c(N)cccc3C1(O)Oc1cc(C(C)C)ccc12 (stereo not drawn) [Example 186, N-(1-Amino-4b-hydroxy-7-isopropyl-10-oxo-9b,10-dihydro-4bH-benzo[d]indeno[1,2-b]furan-9b-yl)-2-methylbenzamide]	> 10	8.31 (≈ 19.4 µM)	0.026 (≈ 0.0607 µM)	–
Cc1cccc(C(=O)NC23C(=O)c4c(N)cccc4C2(O)Oc2cc(C(C)C)ccc23)c1 (stereo not drawn) [Example 187, N-(1-Amino-4b-hydroxy-7-isopropyl-10-oxo-9b,10-dihydro-4bH-benzo[d]indeno[1,2-b]furan-9b-yl)-3-methylbenzamide]	> 10	7.43 (≈ 17.3 µM)	< 0.01	–

SMILES	CC50 (in vitro) [µg/mL]	CC50 (in vitro; Picorana CC50) [µg/mL]	EC50 (Poliovirus 3) [µg/mL]	CC50 (in vitro; Rhino CC50) [µg/mL]
Cc1ccc(C(=O)NC23C(=O)c4c(N)cccc4C2(O)Oc2cc(C(C)C)ccc23)cc1 (stereo not drawn) [Example 188, N-(1-Amino-4b-hydroxy-7-isopropyl-10-oxo-9b,10-dihydro-4bH-benzo[d]indeno[1,2-b]furan-9b-yl)-4-methylbenzamide]	> 10	8.38 (≈ 19.6 µM)	< 0.01	–
COC(=O)c1ccc(C(=O)NC23C(=O)c4c(N)cccc4C2(O)Oc2cc(C(C)C)ccc23)cc1 (stereo not drawn) [Example 189, Methyl-4-(1-amino-4b-hydroxy-7-isopropyl-10-oxo-9b,10-dihydro-4bH-benzo[d]indeno[1,2-b]furan-9b-ylcarbamoyl)benzoate]	> 10	8.56 (≈ 18.1 µM)	< 0.01	–
CC(C)c1ccc2c(c1)OC1(O)c3cccc(N)c3C(=O)C21NC(=O)c1cccc(Cl)c1 (stereo not drawn) [Example 190, N-(1-Amino-4b-hydroxy-7-isopropyl-10-oxo-9b,10-dihydro-4bH-indeno[1,2-b]benzofuran-9b-yl)-3-chlorobenzamide]	5.52 (≈ 12.3 µM)	> 10	< 0.01	–
Cc1cc(C)cc(C(=O)NC23C(=O)c4c(N)cccc4C2(O)Oc2cc(C(C)C)ccc23)c1 (stereo not drawn) [Example 191, N-(1-Amino-4b-hydroxy-7-isopropyl-10-oxo-9b,10-dihydro-4bH-indeno[1,2-b]benzofuran-9b-yl)-3,5-dimethylbenzamide]	> 10	4.12 (≈ 9.31 µM)	< 0.01	–
CC(C)c1ccc2c(c1)OC1(O)c3cccc(N)c3C(=O)C21NC(=O)CF (stereo not drawn) [Example 193, N-(1-Amino-4b-hydroxy-7-isopropyl-10-oxo-9b,10-dihydro-4bH-benzo[d]indeno[1,2-b]furan-9b-yl)-2-fluoroacetamide]	–	> 10	0.011 (≈ 0.0297 µM)	> 10
CC(C)c1ccc2c(c1)OC1(O)c3cccc(N)c3C(=O)C21NC(=O)c1ccccn1 (stereo not drawn) [Example 197, N-(1-Amino-4b-hydroxy-7-isopropyl-10-oxo-9b,10-dihydro-4bH-indeno[1,2-b]benzofuran-9b-yl)picolinamide]	16 (≈ 38.6 µM)	34.5 (≈ 82.9 µM)	< 0.01	–
CC(C)c1ccc2c(c1)OC1(O)c3cccc(N)c3C(=O)C21NC(=O)c1cccnc1 (stereo not drawn) [Example 198, N-(1-Amino-4b-hydroxy-7-isopropyl-10-oxo-9b,10-dihydro-4bH-indeno[1,2-b]benzofuran-9b-yl)nicotinamide]	27.9 (≈ 67.3 µM)	> 50	< 0.01	–
CC(C)c1ccc2c(c1)OC1(O)c3cccc(N)c3C(=O)C21NC(=O)c1ccncc1 (stereo not drawn) [Example 199, N-(1-Amino-4b-hydroxy-7-isopropyl-10-oxo-9b,10-dihydro-4bH-indeno[1,2-b]benzofuran-9b-yl)isonicotinamide]	43 (≈ 103 µM)	48.3 (≈ 116 µM)	< 0.01	–
CC(C)c1ccc2c(c1)OC1(O)c3cccc(N)c3C(=O)C21NC(=O)c1cnccn1 (stereo not drawn) [Example 200, N-(1-Amino-4b-hydroxy-7-isopropyl-10-oxo-9b,10-dihydro-4bH-indeno[1,2-b]benzofuran-9b-yl) pyrazine-2-carboxamide]	> 10	–	< 0.01	–
CC(C)c1ccc2c(c1)OC1(O)c3cccc(N)c3C(=O)C21NC(=O)c1ccco1 (stereo not drawn) [Example 201, N-(1-Amino-4b-hydroxy-7-isopropyl-10-oxo-9b,10-dihydro-4bH-indeno[1,2-b]benzofuran-9b-yl)furane-2-carboxamide]	> 10	–	< 0.01	–
CC(C)c1ccc2c(c1)OC1(O)c3cccc(N)c3C(=O)C21NC(=O)c1ccc2ncccc2c1 (stereo not drawn) [Example 203]	> 10	–	< 0.01	–
CC(C)c1ccc2c(c1)OC1(O)c3cccc(N)c3C(=O)C21NC(=O)c1cc2ccccc2o1 (stereo not drawn) [Example 204, N-(1-Amino-4b-hydroxy-7-isopropyl-10-oxo-9b,10-dihydro-4bH-benzo[d]indeno[1,2-b]furan-9b-yl)benzofurane-2-carboxamide]	> 10	> 4.51	0.011 (≈ 0.0242 µM)	–
Cc1c(C(=O)NC23C(=O)c4c(N)cccc4C2(O)Oc2cc(C(C)C)ccc23)oc2ccccc12 (stereo not drawn) [Example 205]	> 10	–	0.036 (≈ 0.0768 µM)	–
Cc1ncsc1C(=O)NC12C(=O)c3c(N)cccc3C1(O)Oc1cc(C(C)C)ccc12 (stereo not drawn) [Example 206, N-(1-Amino-4b-hydroxy-7-isopropyl-10-oxo-9b,10-dihydro-4bH-indeno[1,2-b]benzofuran-9b-yl)-4-methylthiazole-5-carboxamide]	> 10	–	< 0.01	–
CC(C)c1ccc2c(c1)OC1(O)c3cccc(N)c3C(=O)C21NC(=O)[C@@H]1CSC(=O)N1 (stereo partly drawn) [Example 207, (4R)—N-(1-amino-4b-hydroxy-7-isopropyl-10-oxo-9b,10-dihydro-4bH-indeno[1,2-b]benzofuran-9b-yl)-2-oxothiazolidine-4-carboxamide]	> 10	–	< 0.01	–

Reference: US9890133B2 (priority 2011, dated 2018)
